ChEMBL document CHEMBL4196088, “Induction of cell killing and autophagy by amphiphilic pyrrolidine derivatives on human pancreatic cancer cells” (Eur J Med Chem, 2018)

Experiments:
[1] = test system: PANC-1; assay: Growth inhibition of human PANC1 cells after 72 hrs by XTT assay; type: functional, cell-based; details: PANC-1, 72 h
[2] = test system: BXPC-3; assay: Growth inhibition of human BxPC3 cells after 72 hrs by XTT assay; type: functional, cell-based; details: BXPC-3, 72 h
[3] = test system: MIA PaCa-2; assay: Growth inhibition of human MIAPaCa2 cells after 72 hrs by MTT assay; type: functional, cell-based; details: MIA PaCa-2, 72 h
[4] = test system: PK9; assay: Growth inhibition of human PK9 cells after 72 hrs by MTT assay; type: functional, cell-based; details: PK9, 72 h
[5] = test system: HeLa; assay: Growth inhibition of human HeLa cells after 72 hrs; type: functional, cell-based
[6] = test system: PANC-1; assay: Induction of apoptosis in human PANC1 cells assessed as accumulation at sub-G0/G1 phase at 20 uM after 48 hrs by propidium iodide staining based flow cytometry (reference value: 0.2 to 2.9%); type: functional
[7] = test system: PANC-1; assay: Induction of apoptosis in human PANC1 cells assessed as accumulation at sub-G0/G1 phase at 20 uM after 72 hrs by propidium iodide staining based flow cytometry (reference value: 1.6 to 3.2%); type: functional
[8] = test system: PANC-1; assay: Induction of apoptosis in human PANC1 cells assessed as accumulation at sub-G0/G1 phase at 20 uM after 24 hrs by propidium iodide staining based flow cytometry (reference value: 0.6 to 0.7%); type: functional
[9] = test system: PANC-1; assay: Induction of apoptosis in human PANC1 cells assessed as accumulation at sub-G0/G1 phase at 10 uM after 48 hrs by propidium iodide staining based flow cytometry (reference value: 0.2 to 2.9%); type: functional
[10] = test system: PANC-1; assay: Induction of apoptosis in human PANC1 cells assessed as accumulation at sub-G0/G1 phase at 10 uM after 72 hrs by propidium iodide staining based flow cytometry (reference value: 1.6 to 3.2%); type: functional
[11] = test system: PANC-1; assay: Induction of apoptosis in human PANC1 cells assessed as accumulation at sub-G0/G1 phase at 10 uM after 24 hrs by propidium iodide staining based flow cytometry (reference value: 0.6 to 0.7%); type: functional

SMILES	IC50 [1]	IC50 [2]	IC50 [3]	IC50 [4]	other results
C=CCCCCCCOC[C@@H]1C[C@@H](O)CN1C(=O)OC(C)(C)C	–	–	–	–	IC50 [5]: 23 µM
C=CCCCCCCCCCOC[C@@H]1CCCN1[S+]([O-])c1ccc(C)cc1 (some centres undefined)	56.7 µM	50 µM	–	–	–
C=CCCCCCCCCCOC[C@@H]1C[C@@H](O)CN1	–	–	–	–	IC50 [5]: 39 µM
CC(C)(C)OC(=O)N1CCC[C@H]1COCCCCCC/C=C/c1ccc(Oc2ccccc2)cc1	63.3 µM	63.3 µM	8.5 µM	69.5 µM	–
CCCCCCCC/C=C/CCCCCCCCOC[C@@H]1CCCN1C(=O)OC(C)(C)C	> 100 µM	> 100 µM	> 100 µM	> 100 µM	–
CCCCCCCC/C=C\CCCCCCCCOC[C@@H]1C[C@@H](O)CN1	–	–	–	–	IC50 [5]: 3.9 µM
CCCCCCCC/C=C\CCCCCCCCOC[C@@H]1CCCN1C(=O)[C@@H]1CCCN1C(=O)OC(C)(C)C	> 100 µM	> 100 µM	–	–	–
C=CCCCCCCOC[C@@H]1C[C@@H](O)CN1	–	–	–	–	IC50 [5]: > 100 µM
CC(C)(C)OC(=O)N1C[C@H](O)C[C@H]1COCCCCCCCC/C=C/c1ccc(-c2ccccc2)cc1	–	–	–	–	IC50 [5]: 37.5 µM
CCCCCCCC/C=C\CCCCCCCCOC[C@@H]1C[C@@H](O)CN1C(=O)OC(C)(C)C	–	–	–	–	IC50 [5]: 40 µM
CCCCCCCC/C=C\CCCCCCCCOC[C@@H]1CCCN1[S+]([O-])c1ccc(C)cc1 (some centres undefined)	> 100 µM	> 100 µM	–	–	–
CC(C)(C)OC(=O)N1C[C@H](O)C[C@H]1COCCCCCC/C=C/c1ccc(-c2ccccc2)cc1	–	–	–	–	IC50 [5]: 38.5 µM
CC(C)(C)OC(=O)N1C[C@H](O)C[C@H]1COCCCCCCCCC/C=C/c1ccc(Oc2ccccc2)cc1	–	–	–	–	IC50 [5]: 45.9 µM
C=CCCCCCCOC[C@@H]1CCCN1	> 100 µM	> 100 µM	72.9 µM	57.7 µM	–
CC(C)(C)OC(=O)NCC(=O)N1CCC[C@H]1COCCCCCCCCC/C=C\c1ccc(Oc2ccccc2)cc1	> 100 µM	> 100 µM	–	–	–
CC(C)(C)OC(=O)NCC(=O)N1CCC[C@H]1COCCCCCC/C=C/c1ccc(Oc2ccccc2)cc1	63.3 µM	80 µM	–	–	–

SMILES	IC50 [1]	IC50 [2]	IC50 [3]	IC50 [4]	other results
CC(C)(C)OC(=O)N1C[C@H](O)C[C@H]1COCCCCCCCCC/C=C/c1ccc(-c2ccccc2)cc1	–	–	–	–	IC50 [5]: 36.5 µM
C=CCCCCCCCCCOC[C@@H]1CCCN1C(=O)OC(C)(C)C	≥ 100 µM	50 µM	50.3 µM	> 100 µM	–
C=CCCCCCCCCCOC[C@@H]1CCCN1	50 µM	6.3 µM	17.1 µM	18.9 µM	–
C=CCCCCCCOC[C@@H]1CCCN1C(=O)OC(C)(C)C	56.7 µM	53.3 µM	47.1 µM	57.1 µM	–
CC(C)(C)OC(=O)N1C[C@H](O)C[C@H]1COCCCCCC/C=C/c1ccc(Oc2ccccc2)cc1	–	–	–	–	IC50 [5]: 41 µM
O[C@H]1CN[C@H](COCCCCCCCC/C=C/c2ccc(-c3ccccc3)cc2)C1	–	–	–	–	IC50 [5]: 3.9 µM
CCCCCCCC/C=C\CCCCCCCCOC[C@@H]1CCCN1.Cl	4.7 µM	5.3 µM	5.4 µM	6.5 µM	Activity [6]: 2.3%; Activity [7]: 14.1%; Activity [8]: 2.2%; Activity [9]: 4.6%; Activity [10]: 14.4%; Activity [11]: 2.4%
C=CCCCCCCCCCOC[C@@H]1C[C@@H](O)CN1C(=O)OC(C)(C)C	–	–	–	–	IC50 [5]: 39 µM
Cc1ccc([S+]([O-])N2CCC[C@H]2COCCCCCC/C=C/c2ccc(Oc3ccccc3)cc2)cc1 (some centres undefined)	60 µM	50 µM	–	–	–
CCCCCCCC/C=C/CCCCCCCCOC[C@@H]1C[C@@H](O)CN1C(=O)OC(C)(C)C	–	–	–	–	IC50 [5]: 29.5 µM
CCCCCCCC/C=C/CCCCCCCCOC[C@@H]1C[C@@H](O)CN1	–	–	–	–	IC50 [5]: 4 µM
CCCCCCCC/C=C\CCCCCCCCOC[C@@H]1CCCN1C(=O)OC(C)(C)C	80 µM	> 100 µM	> 100 µM	> 100 µM	–
CC(C)(C)OC(=O)N1C[C@H](O)C[C@H]1COCCCCCCCC/C=C/c1ccc(Oc2ccccc2)cc1	–	–	–	–	IC50 [5]: 41 µM
C=CCCCCCCOC[C@@H]1CCCN1[S+]([O-])c1ccc(C)cc1 (some centres undefined)	53.3 µM	50 µM	–	–	–
CCCCCCCC/C=C/CCCCCCCCOC[C@@H]1CCCN1.Cl	5.3 µM	5.3 µM	4.2 µM	9.2 µM	Activity [6]: 5.3%; Activity [7]: 2.5%; Activity [8]: 1.2%; Activity [9]: 2.6%; Activity [10]: 8%; Activity [11]: 1.6%
O[C@H]1CN[C@H](COCCCCCC/C=C/c2ccc(Oc3ccccc3)cc2)C1	–	–	–	–	IC50 [5]: 5.1 µM

Continued, in another order:

IC50 [1]	IC50 [2]	IC50 [3]	SMILES	IC50 [4]	other results
≥ 100 µM	≥ 100 µM	–	Cc1ccc([S+]([O-])N2CCC[C@H]2COCCCCCC/C=C/c2ccc(-c3ccccc3)cc2)cc1 (some centres undefined)	–	–
50 µM	43.3 µM	18.3 µM	C(=C\c1ccc(Oc2ccccc2)cc1)/CCCCCCCCOC[C@@H]1CCCN1	20.8 µM	–
66.7 µM	66.7 µM	–	CC(C)(C)OC(=O)NCC(=O)N1CCC[C@H]1COCCCCCC/C=C/c1ccc(-c2ccccc2)cc1	–	–
90 µM	70 µM	69.2 µM	CC(C)(C)OC(=O)N1CCC[C@H]1COCCCCCCCC/C=C/c1ccc(-c2ccccc2)cc1	> 100 µM	–
50 µM	53.3 µM	–	O=CN1CCC[C@H]1COCCCCCC/C=C/c1ccc(-c2ccccc2)cc1	–	–
65 µM	50 µM	–	CC(=O)N1CCC[C@H]1COCCCCCC/C=C/c1ccc(-c2ccccc2)cc1	–	–
30 µM	49.7 µM	7.4 µM	C(=C\c1ccc(Oc2ccccc2)cc1)/CCCCCCOC[C@@H]1CCCN1	11.4 µM	–
> 100 µM	> 100 µM	23 µM	CC(C)(C)OC(=O)N1CCC[C@H]1COCCCCCC/C=C/c1ccc(-c2ccccc2)cc1	> 100 µM	–
56.7 µM	66.7 µM	–	O=CN1CCC[C@H]1COCCCCCCCCC/C=C/c1ccc(-c2ccccc2)cc1	–	–
53.3 µM	46.7 µM	–	O=CN1CCC[C@H]1COCCCCCC/C=C/c1ccc(Oc2ccccc2)cc1	–	–
60 µM	56.7 µM	19.3 µM	C(=C\c1ccc(Oc2ccccc2)cc1)/CCCCCCCCCOC[C@@H]1CCCN1	20.7 µM	–
65 µM	73.3 µM	–	CC(=O)N1CCC[C@H]1COCCCCCCCCC/C=C/c1ccc(Oc2ccccc2)cc1	–	–
80 µM	60 µM	57.4 µM	CC(C)(C)OC(=O)N1CCC[C@H]1COCCCCCCCCC/C=C/c1ccc(-c2ccccc2)cc1	> 100 µM	–
7.3 µM	7 µM	8.3 µM	C(=C\c1ccc(-c2ccccc2)cc1)/CCCCCCCCCOC[C@@H]1CCCN1.Cl	5.5 µM	Activity [6]: 2.2%; Activity [7]: 11.6%; Activity [8]: 7%; Activity [9]: 1.9%; Activity [10]: 8.4%; Activity [11]: 1.6%
> 100 µM	> 100 µM	–	CC(C)(C)OC(=O)NCC(=O)N1CCC[C@H]1COCCCCCCCCC/C=C/c1ccc(-c2ccccc2)cc1	–	–
40 µM	60 µM	–	CC(=O)N1CCC[C@H]1COCCCCCC/C=C/c1ccc(Oc2ccccc2)cc1	–	–
5.3 µM	5.3 µM	3.7 µM	C(=C\c1ccc(-c2ccccc2)cc1)/CCCCCCCCOC[C@@H]1CCCN1.Cl	3.9 µM	Activity [6]: 3.2%; Activity [7]: 10.6%; Activity [8]: 0.9%; Activity [9]: 2.3%; Activity [10]: 12.2%; Activity [11]: 1%
> 100 µM	–	59.6 µM	CC(C)(C)OC(=O)N1CCC[C@H]1COCCCCCCCCC/C=C/c1ccc(Oc2ccccc2)cc1	> 100 µM	–
> 100 µM	> 100 µM	–	Cc1ccc([S+]([O-])N2CCC[C@H]2COCCCCCCCCC/C=C/c2ccc(-c3ccccc3)cc2)cc1 (some centres undefined)	–	–
63.3 µM	65 µM	–	O=CN1CCC[C@H]1COCCCCCCCCC/C=C/c1ccc(Oc2ccccc2)cc1	–	–
70 µM	56.7 µM	–	CC(=O)N1CCC[C@H]1COCCCCCCCCC/C=C/c1ccc(-c2ccccc2)cc1	–	–
> 100 µM	–	–	Cc1ccc([S+]([O-])N2CCC[C@H]2COCCCCCCCCC/C=C/c2ccc(Oc3ccccc3)cc2)cc1 (some centres undefined)	–	–
90 µM	> 100 µM	> 100 µM	CC(C)(C)OC(=O)N1CCC[C@H]1COCCCCCCCC/C=C/c1ccc(Oc2ccccc2)cc1	> 100 µM	–
5.3 µM	5.7 µM	2.9 µM	C(=C\c1ccc(-c2ccccc2)cc1)/CCCCCCOC[C@@H]1CCCN1.Cl	3.2 µM	Activity [6]: 2.1%; Activity [7]: 4.3%; Activity [8]: 2.3%; Activity [9]: 1.6%; Activity [10]: 4.7%; Activity [11]: 0.9%
